Experimental data taken from patent publication US20200246316A1, “METHODS OF TREATING POST-SURGICAL PAIN WITH A THIAZOLINE ANTI-HYPERALGESIC AGENT” (CERSCI THERAPEUTICS, INC., priority 2019, published 2020).
Counter-ions that a name gives are not always drawn. Like-named read-outs stand apart in the source and are kept apart here.

Experiments:
[1] = Rat 28-day GLP repeat dose PO study (toxicokinetics); assay type: in vivo; conditions: rat, in vivo, po; for Tmax / AUC / AUC(0-inf) / CL/F / Cmax / Vd/F / half-life: male; for Tmax: read-out: tmax; for Cmax: read-out: Cmax; for half-life: read-out: t1/2 (converted)
Protocol: The vehicle was 0.5% HPMC. There were 15 rats/sex in the control and high dose groups (5/sex for a 14-day recovery period) while the low and mid doses consisted of 10 rats/sex. Satellite groups of rats/sex/group for toxicokinetics were included.
Rats in Group 1 (Vehicle Control) were bled once at approximately 1 hour post-dose on those days.

[2] = Dog single oral dose MTD study; assay type: in vivo; conditions: for concentration at 0.5 h / concentration at 1 h / concentration at 2 h: dog, plasma, N = 2, read-out: Average Compound 1 Concentration in dog plasma
Protocol: The objective of a third single dose study in dogs was to determine the maximum tolerated dose (MTD) of Compound 1 following a single oral (gavage) dose in male and female dogs. Using a pyramiding dose schedule, dose levels of 250, 350 and 500 mg/kg were administered to 2 dogs/sex (after a washout period of at least three days, the same animals were dosed with the next dose level). The dose volume was 10 mL/kg body weight. The vehicle was 0.5% aqueous HPMC.

[3] = Stability in plasma from a variety of species; assay type: in vitro ADME
From the text: Further metabolism work in additional species will be undertaken.

[4] = 500 mg/kg, Day 14, M, 500 mg/kg PO
[5] = 500 mg/kg, Day 28, M, 500 mg/kg PO
[6] = 1000 mg/kg, Day 1, M, 1000 mg/kg PO
[7] = 1000 mg/kg, Day 14, M, 1000 mg/kg PO
[8] = 1000 mg/kg, Day 28, M, 1000 mg/kg PO
[9] = 2000 mg/kg, Day 1, M, 2000 mg/kg PO
[10] = 2000 mg/kg, Day 14, M, 2000 mg/kg PO
[11] = 2000 mg/kg, Day 28, M, 2000 mg/kg PO
[12] = female, 250 mg/kg PO (Dose 1; Day 1), F
[13] = female, 350 mg/kg PO (Dose 3; Day 9), F
[14] = female, 500 mg/kg PO (Dose 2; Day 4), F
[15] = male, 250 mg/kg PO (Dose 1; Day 1), M
[16] = male, 350 mg/kg PO (Dose 3; Day 9), M
[17] = male, 500 mg/kg PO (Dose 2; Day 4), M

CC1(C)SC(Nc2ccccc2O)=N[C@@H]1C(=O)O [Compound 1, (R)-2-(2-hydroxyphenylamino)-5,5-dimethyl-4,5-dihydrothiazole-4-carboxylic acid mono-hydrochloride]
Tmax ([1]; 500 mg/kg, Day 1, M, 500 mg/kg PO): 1 h | AUC [1, 4]: 244 µg·h/mL | AUC(0-inf) [1, 4]: 258 µg·h/mL | CL/F ([1]; 500 mg/kg, Day 14, M, 500 mg/kg PO, read-out: CL/F (CLss/F) (converted)): 34.2 mL/min/kg | Cmax [1, 4]: 45.8 µg/mL | Vd/F ([1]; 500 mg/kg, Day 14, M, 500 mg/kg PO, read-out: V/F (Vss/F)): 18.5 L/kg | half-life [1, 4]: 6.27 h | Tmax [1, 4]: 1 h | AUC [1, 5]: 305 µg·h/mL | AUC(0-inf) [1, 5]: 333 µg·h/mL | CL/F ([1]; 500 mg/kg, Day 28, M, 500 mg/kg PO, read-out: CL/F (CLss/F) (converted)): 27.3 mL/min/kg | Cmax [1, 5]: 48.6 µg/mL | Vd/F ([1]; 500 mg/kg, Day 28, M, 500 mg/kg PO, read-out: V/F (Vss/F)): 16.4 L/kg | half-life [1, 5]: 6.9 h | Tmax [1, 5]: 1 h | CL/F ([1]; 1000 mg/kg): 56.8 mL/min/kg | AUC [1, 6]: 456 µg·h/mL | AUC(0-inf) [1, 6]: 460 µg·h/mL | CL/F ([1]; 1000 mg/kg, Day 1, M, 1000 mg/kg PO, read-out: CL/F (CLz/F) (converted)): 36.2 mL/min/kg | Cmax [1, 6]: 52.7 µg/mL | Vd/F ([1]; 1000 mg/kg, Day 1, M, 1000 mg/kg PO, read-out: V/F (Vz/F)): 10.9 L/kg | half-life [1, 6]: 3.46 h | Tmax [1, 6]: 1 h | AUC [1, 7]: 293 µg·h/mL | AUC(0-inf) [1, 7]: 296 µg·h/mL | Cmax [1, 7]: 51.9 µg/mL | Vd/F ([1]; 1000 mg/kg, Day 14, M, 1000 mg/kg PO, read-out: V/F (Vss/F)): 18.1 L/kg | half-life [1, 7]: 3.68 h | Tmax [1, 7]: 1 h | AUC [1, 8]: 334 µg·h/mL | AUC(0-inf) [1, 8]: 337 µg·h/mL | CL/F ([1]; 1000 mg/kg, Day 28, M, 1000 mg/kg PO, read-out: CL/F (CLss/F) (converted)): 49.8 mL/min/kg | Cmax [1, 8]: 47.9 µg/mL | Vd/F ([1]; 1000 mg/kg, Day 28, M, 1000 mg/kg PO, read-out: V/F (Vss/F)): 14.3 L/kg | half-life [1, 8]: 3.31 h | CL/F ([1]; 2000 mg/kg): 47.7 mL/min/kg | AUC [1, 9]: 768 µg·h/mL | AUC(0-inf) [1, 9]: 771 µg·h/mL | CL/F ([1]; 2000 mg/kg, Day 1, M, 2000 mg/kg PO, read-out: CL/F (CLz/F) (converted)): 43.2 mL/min/kg | Cmax [1, 9]: 83.1 µg/mL | Vd/F ([1]; 2000 mg/kg, Day 1, M, 2000 mg/kg PO, read-out: V/F (Vz/F)): 10.5 L/kg | half-life [1, 9]: 2.81 h | AUC [1, 10]: 701 µg·h/mL | AUC(0-inf) [1, 10]: 709 µg·h/mL | Cmax [1, 10]: 75.6 µg/mL | Vd/F ([1]; 2000 mg/kg, Day 14, M, 2000 mg/kg PO, read-out: V/F (Vss/F)): 15.1 L/kg | half-life [1, 10]: 3.66 h | Tmax [1, 10]: 1 h | AUC [1, 11]: 724 µg·h/mL | AUC(0-inf) [1, 11]: 731 µg·h/mL | CL/F ([1]; 2000 mg/kg, Day 28, M, 2000 mg/kg PO, read-out: CL/F (CLss/F) (converted)): 46 mL/min/kg | Cmax [1, 11]: 83.6 µg/mL | Vd/F ([1]; 2000 mg/kg, Day 28, M, 2000 mg/kg PO, read-out: V/F (Vss/F)): 14.1 L/kg | half-life [1, 11]: 3.53 h | t1/2 ([1]; 2000 mg/kg): 8 05 hr | concentration at 0.5 h [2, 12]: 28 µg/mL | concentration at 1 h [2, 12]: 54 µg/mL | concentration at 2 h [2, 12]: 46 µg/mL | concentration at 0.5 h [2, 13]: 67 µg/mL | concentration at 1 h [2, 13]: 154 µg/mL | concentration at 2 h [2, 13]: 119 µg/mL | concentration at 0.5 h [2, 14]: 87 µg/mL | concentration at 1 h [2, 14]: 136 µg/mL | concentration at 2 h [2, 14]: 124 µg/mL | concentration at 0.5 h [2, 15]: 71 µg/mL | concentration at 1 h [2, 15]: 110 µg/mL | concentration at 2 h [2, 15]: 91 µg/mL | concentration at 0.5 h [2, 16]: 134 µg/mL | concentration at 1 h [2, 16]: 220 µg/mL | concentration at 2 h [2, 16]: 153 µg/mL | concentration at 0.5 h [2, 17]: 111 µg/mL | concentration at 1 h [2, 17]: 191 µg/mL | concentration at 2 h [2, 17]: 193 µg/mL | emesis incidence ([2]; single dose 500 mg/kg): three of the four dosed animals | tolerability ([2]; single oral (gavage) dose 500 mg/kg): not tolerated | stability in plasma [3]: stable
